Read-outs that look alike come from different tables or passages of the source.
Experiments:
Assay type in all cases: cell-based
[1] = tested on: HL-60 (MLL-WT) cells; experiment: Cell proliferation (alamarBlue) HL-60; details: for IC50: Homo sapiens, read-out: IC50 proliferation
Method: (§1) Cells were seeded in the optimal growth medium at 4000–5000 cells/well in a 96 MTP and cultured 18–24 h before inhibitor treatment.

[2] = tested on: Jurkat (MLL-WT) cells; experiment: Cell proliferation (alamarBlue) Jurkat; details: Homo sapiens
Method: as §1

[3] = tested on: OCI-AML-5 (MLL-WT) cells; experiment: Cell proliferation (alamarBlue) OCI-AML-5; details: Homo sapiens
Method: as §1

[4] = tested on: OCI-AML-3 (MLL-WT) cells; experiment: Cell proliferation (alamarBlue) OCI-AML-3; details: Homo sapiens
Method: as §1

[5] = tested on: MV4-11 (MLL-AF4) cells; experiment: Cell proliferation (alamarBlue) MV4-11; details: Homo sapiens
Method: as §1

[6] = tested on: RS4;11 (MLL-AF4) cells; experiment: Cell proliferation (alamarBlue) RS4;11; details: Homo sapiens, RS4-11, read-out: IC50 proliferation, RS4;11 (MLL-AF4)
Method: as §1

[7] = tested on: SEM (MLL-AF4) cells; experiment: Cell proliferation (alamarBlue) SEM
Method: as §1

[8] = tested on: ML-2 (MLL-AF6) cells; experiment: Cell proliferation (alamarBlue) ML-2
Method: as §1

[9] = tested on: MOLM-13 (MLL-AF9) cells; experiment: Cell proliferation (alamarBlue) MOLM-13; details: Homo sapiens
Method: as §1

[10] = tested on: MOLM-14 (MLL-AF9) cells; experiment: Cell proliferation (alamarBlue) MOLM-14; details: Homo sapiens
Method: as §1

[11] = tested on: NOMO-1 (MLL-AF9) cells; experiment: Cell proliferation (alamarBlue) NOMO-1; details: Homo sapiens
Method: as §1

[12] = tested on: OCI-AML-2 (MLL-AF9) cells; experiment: Cell proliferation (alamarBlue) OCI-AML-2; details: Homo sapiens
Method: as §1

[13] = tested on: KOPN-8 (MLL-ENL) cells; experiment: Cell proliferation (alamarBlue) KOPN-8; details: Homo sapiens
Method: as §1

[14] = tested on: EOL-1 (MLL-TD) cells; experiment: Cell proliferation (alamarBlue) EOL-1; details: Homo sapiens
Method: as §1

[15] = tested on: selected MLL-fused models; experiment: Cell proliferation, AML/ALL panel; details: specifically in selected MLL-fused models (Fig. 2a); read-out: proliferation IC50 (significant effects)
Method: as §1

[16] = tested on: MLL-fused cell lines (MV4-11, MOLM-13); experiment: CD11b protein expression by flow cytometry, MLL-fused lines; details: 4 and 7 days of treatment
Method: (§2) Four thousand cells per well were seeded 24 h before they were treated with the indicated inhibitor in a 96 MTP. After 4 or 7 days of treatment, cells were washed with PBS and stained with CD11b - APC (BioLegend, San Diego, California, USA) and DAPI (Thermo Fisher Scientific, Waltham, Massachusetts, USA) or AnnexinV – FITC (BioLegend, San Diego, California, USA) and PI solution (Sigma-Aldrich St. Louis, Missouri, USA) using the FACS Canto II (BD Biosciences, Heidelberg, Germany) and data was analyzed with FACSDiva software.

[17] = tested on: HL-60 cells; experiment: CD11b protein expression by flow cytometry, HL-60; details: non-fused HL-60 cell line, 4 and 7 days of treatment
Method: as §2

[18] = tested on: MV4-11, MOLM-13 and HL-60 cells; experiment: Cell cycle analysis (PI, flow cytometry); details: 4 days of treatment (Figure S2)
Method: Cells were washed with PBS and fixed overnight at − 20 °C with 70% ethanol. Fixed cells were stained with PI solution (Sigma-Aldrich St. Louis, MO, USA) solution containing RNase A (Qiagen, Hilden, Germany). Fluorescence was measured with FACS Canto II (BD Biosciences, Heidelberg, Germany) flow cytometer and data was analyzed with FACSDiva software.

[19] = tested on: MV4-11, MOLM-13 and HL-60 cells; experiment: Cell proliferation, all three tested AML cell lines; details: 96 h, read-out: anti-proliferation IC50s
Method: Cells were seeded in the optimal growth medium at 4000–5000 cells/well in a 96 MTP and cultured 18–24 h before inhibitor treatment. Upon treatment with the indicated inhibitor, cells were cultured for 24 h, 96 h, and 168 h and effects on proliferation were determined using alamarBlue Cell Viability Reagent (Thermo Fisher Scientific, Waltham, MA, USA).

[20] = read-out: IC50 proliferation, Jurkat (MLL-WT), D1
[21] = read-out: IC50 proliferation, Jurkat (MLL-WT), D4
[22] = read-out: IC50 proliferation, Jurkat (MLL-WT), D7
[23] = OCI-AML-5, read-out: IC50 proliferation, OCI-AML-5 (MLL-WT), D1
[24] = OCI-AML-5, read-out: IC50 proliferation, OCI-AML-5 (MLL-WT), D4
[25] = OCI-AML-5, read-out: IC50 proliferation, OCI-AML-5 (MLL-WT), D7
[26] = OCI-AML-3, read-out: IC50 proliferation, OCI-AML-3 (MLL-WT), D1
[27] = OCI-AML-3, read-out: IC50 proliferation, OCI-AML-3 (MLL-WT), D4
[28] = OCI-AML-3, read-out: IC50 proliferation, OCI-AML-3 (MLL-WT), D7
[29] = MV4-11, read-out: IC50 proliferation, MV4-11 (MLL-AF4), D1
[30] = MV4-11, read-out: IC50 proliferation, MV4-11 (MLL-AF4), D4
[31] = MV4-11, read-out: IC50 proliferation, MV4-11 (MLL-AF4), D7
[32] = read-out: IC50 proliferation, SEM (MLL-AF4), D1
[33] = read-out: IC50 proliferation, SEM (MLL-AF4), D4
[34] = read-out: IC50 proliferation, SEM (MLL-AF4), D7
[35] = read-out: IC50 proliferation, ML-2 (MLL-AF6), D1
[36] = read-out: IC50 proliferation, ML-2 (MLL-AF6), D4
[37] = read-out: IC50 proliferation, ML-2 (MLL-AF6), D7
[38] = MOLM-13, read-out: IC50 proliferation, MOLM-13 (MLL-AF9), D1
[39] = MOLM-13, read-out: IC50 proliferation, MOLM-13 (MLL-AF9), D4
[40] = MOLM-13, read-out: IC50 proliferation, MOLM-13 (MLL-AF9), D7
[41] = MOLM-14, read-out: IC50 proliferation, MOLM-14 (MLL-AF9), D1
[42] = MOLM-14, read-out: IC50 proliferation, MOLM-14 (MLL-AF9), D4
[43] = MOLM-14, read-out: IC50 proliferation, MOLM-14 (MLL-AF9), D7
[44] = NOMO-1, read-out: IC50 proliferation, NOMO-1 (MLL-AF9), D1
[45] = NOMO-1, read-out: IC50 proliferation, NOMO-1 (MLL-AF9), D4
[46] = NOMO-1, read-out: IC50 proliferation, NOMO-1 (MLL-AF9), D7
[47] = OCI-AML2, read-out: IC50 proliferation, OCI-AML-2 (MLL-AF9), D1
[48] = OCI-AML2, read-out: IC50 proliferation, OCI-AML-2 (MLL-AF9), D4
[49] = OCI-AML2, read-out: IC50 proliferation, OCI-AML-2 (MLL-AF9), D7
[50] = KOPN-8, read-out: IC50 proliferation, KOPN-8 (MLL-ENL), D1
[51] = KOPN-8, read-out: IC50 proliferation, KOPN-8 (MLL-ENL), D4
[52] = KOPN-8, read-out: IC50 proliferation, KOPN-8 (MLL-ENL), D7
[53] = EOL1, read-out: IC50 proliferation, EOL-1 (MLL-TD), D1
[54] = EOL1, read-out: IC50 proliferation, EOL-1 (MLL-TD), D4
[55] = EOL1, read-out: IC50 proliferation, EOL-1 (MLL-TD), D7

Cc1c(CN2CCC3(CC2)CN(c2ncnc4sc(CC(F)(F)F)cc24)C3)ccc2c1cc(C#N)n2CC(N)=O [BAY-155] was tested, and the “anti-proliferation effect in non-fused HL-60” value ([1]; HL-60, 4 days of treatment (Fig. 1a)) was “only affected with the 10 μM treatment”, the IC50 ([1]; HL-60, 24 h) was > 10000 nM and the IC50 ([1]; HL-60, 96 h) was 9040 nM. For the same molecule, the IC50 ([1]; HL-60, 168 h) was > 10000 nM, the IC50 [2, 20] was > 10000 nM and the IC50 [2, 21] was 9000 nM. The IC50 [2, 22] was 9090 nM, the IC50 [3, 23] was > 10000 nM and the IC50 [3, 24] was > 10000 nM. The IC50 [3, 25] was 8560 nM, the IC50 [4, 26] was > 10000 nM and the IC50 [4, 27] was 1370 nM. The IC50 [4, 28] was 1560 nM, the IC50 [5, 29] was > 10000 nM and the IC50 [5, 30] was 90 nM. For the same molecule, the IC50 [5, 31] was 30 nM, the IC50 ([6]; D1) was > 10000 nM and the IC50 ([6]; D4) was > 10000 nM. For the same molecule, the IC50 ([6]; D7) was 5990 nM, the IC50 [7, 32] was > 10000 nM and the IC50 [7, 33] was 660 nM. The IC50 [7, 34] was 790 nM, the IC50 [8, 35] was > 10000 nM and the IC50 [8, 36] was > 10000 nM. For the same molecule, the IC50 [8, 37] was > 10000 nM, the IC50 [9, 38] was > 10000 nM and the IC50 [9, 39] was 140 nM. It also gave an IC50 [9, 40] of 280 nM, an IC50 [10, 41] of 6890 nM and an IC50 [10, 42] of 310 nM. For the same molecule, the IC50 [10, 43] was 230 nM, the IC50 [11, 44] was > 10000 nM and the IC50 [11, 45] was 150 nM. For the same molecule, the IC50 [11, 46] was 70 nM, the IC50 [12, 47] was > 10000 nM and the IC50 [12, 48] was 8260 nM. The IC50 [12, 49] was 9150 nM, the IC50 [13, 50] was > 10000 nM and the IC50 [13, 51] was 6340 nM. The IC50 [13, 52] was 1890 nM, the IC50 [14, 53] was 6830 nM and the IC50 [14, 54] was 1620 nM. For the same molecule, the IC50 [14, 55] was 1140 nM, the IC50 [15] was < 1000 nM and the “CD11b protein level” value [16] was “increased CD11b protein level in a dose and time-dependent manner”. The “CD11b level” value [17] was “did not increase CD11b level” and the “cell cycle effect” value [18] was “decrease of cells in S and G2/M phase with increasing concentrations”.
In the case of Cc1c(-c2ccc(-c3ccccc3F)cc2)nc2ccc(F)cc2c1C(=O)O [Brequinar], the IC50 ([1]; HL-60, 24 h) is reported as > 10000 nM, the IC50 ([1]; HL-60, 96 h) is reported as 800 nM and the IC50 ([1]; HL-60, 168 h) is reported as 270 nM. For the same molecule, the IC50 [2, 20] was > 10000 nM, the IC50 [2, 21] was 30 nM and the IC50 [2, 22] was 50 nM. The IC50 [3, 23] was > 10000 nM, the IC50 [3, 24] was > 10000 nM and the IC50 [3, 25] was > 10000 nM. For the same molecule, the IC50 [4, 26] was > 10000 nM, the IC50 [4, 27] was 200 nM and the IC50 [4, 28] was 240 nM. The IC50 [5, 29] was > 10000 nM, the IC50 [5, 30] was 100 nM and the IC50 [5, 31] was 220 nM. The IC50 ([6]; D1) was > 10000 nM, the IC50 ([6]; D4) was 1100 nM and the IC50 ([6]; D7) was > 10000 nM. The IC50 [7, 32] was > 10000 nM, the IC50 [7, 33] was 190 nM and the IC50 [7, 34] was 250 nM. The IC50 [8, 35] was > 10000 nM, the IC50 [8, 36] was 500 nM and the IC50 [8, 37] was 310 nM. For the same molecule, the IC50 [9, 38] was > 10000 nM, the IC50 [9, 39] was 110 nM and the IC50 [9, 40] was 220 nM. The IC50 [10, 41] was > 10000 nM, the IC50 [10, 42] was 320 nM and the IC50 [10, 43] was 180 nM. For the same molecule, the IC50 [11, 44] was > 10000 nM, the IC50 [11, 45] was 270 nM and the IC50 [11, 46] was 130 nM. For the same molecule, the IC50 [12, 47] was > 10000 nM, the IC50 [12, 48] was > 10000 nM and the IC50 [12, 49] was > 10000 nM. For the same molecule, the IC50 [13, 50] was > 10000 nM, the IC50 [13, 51] was 300 nM and the IC50 [13, 52] was 360 nM. For the same molecule, the IC50 [14, 53] was > 10000 nM, the IC50 [14, 54] was 380 nM and the IC50 [14, 55] was 110 nM. The IC50 [19] was 30 to 140 nM, the “CD11b protein level” value [16] was “increased CD11b protein level in a dose and time-dependent manner” and the “CD11b level” value [17] was “treatment did”. For the same molecule, the “cell cycle effect” value [18] was “slight S-phase arrest at lower concentrations”.

Source: paper PMC6599250, “Functional diversity of inhibitors tackling the differentiation blockage of MLL-rearranged leukemia” (Journal of Hematology & Oncology, 2019)
